For test [1], the target named is VHZ (Homo sapiens (Human), UniProt Q9BVJ7). Description: PTP selectivity panel, pNPP. Format: biochemical, mammalian. The conditions noted are these: pNPP at Km.
In test [2] the test system is 32D myeloid cells bearing wild-type (WT) KIT. Put plainly: Proliferation (thymidine incorporation) of 32D myeloid cells bearing WT KIT. It is filed as cell-based. The conditions noted are these: tested concentrations, with IL-3. On the procedure:
(§1) FIG. 8A is a graph depicting 32D myeloid cells bearing wild-type (WT) KIT or KITD814V that were starved of serum and growth factors for 6 hours and subjected to proliferation assay in the presence or absence of the indicated concentration of II-B08 or 11a-1 as analyzed in Example 6. Assay was performed in the presence of IL-3 (10 ng/mL) for cells bearing WT KIT and in the absence of growth factors for cells bearing oncogenic KITD814V. Bars denote the mean thymidine incorporation (CPM±SEM) consolidated from four independent experiments performed in triplicate. *p<0.05.
To further determine the efficacy of compound 11a-1, the growth of oncogenic KITD814V bearing 32D myeloid cells in the presence of II-B08 and 11a-1 were compared. Specifically, the wild-type (WT) KIT and KITD814V were inserted into the bicistronic retroviral vector, MIEG3, upstream of the internal ribosome entry site (IRES) and the enhanced green fluorescent protein (EGFP) gene as previously described in Mali et al., 2012. Retroviral supernatants for transduction of 32D myeloid cells and primary hematopoietic stem and progenitor cells were generated using Phoenix ecotropic packaging cell line transfected with retroviral vector plasmids using a calcium phosphate transfection kit (Invitrogen, Carlsbad, Calif.). Supernatants were collected 48 hours after transfection and filtered through 0.45 μm membranes. […]

Test [3] deals with PTPγ (Homo sapiens (Human), UniProt P23470). Put plainly: PTP selectivity panel, pNPP. Format: biochemical, mammalian. The conditions noted are these: pNPP at Km.
Chain of PTPγ (P23470 20-1445): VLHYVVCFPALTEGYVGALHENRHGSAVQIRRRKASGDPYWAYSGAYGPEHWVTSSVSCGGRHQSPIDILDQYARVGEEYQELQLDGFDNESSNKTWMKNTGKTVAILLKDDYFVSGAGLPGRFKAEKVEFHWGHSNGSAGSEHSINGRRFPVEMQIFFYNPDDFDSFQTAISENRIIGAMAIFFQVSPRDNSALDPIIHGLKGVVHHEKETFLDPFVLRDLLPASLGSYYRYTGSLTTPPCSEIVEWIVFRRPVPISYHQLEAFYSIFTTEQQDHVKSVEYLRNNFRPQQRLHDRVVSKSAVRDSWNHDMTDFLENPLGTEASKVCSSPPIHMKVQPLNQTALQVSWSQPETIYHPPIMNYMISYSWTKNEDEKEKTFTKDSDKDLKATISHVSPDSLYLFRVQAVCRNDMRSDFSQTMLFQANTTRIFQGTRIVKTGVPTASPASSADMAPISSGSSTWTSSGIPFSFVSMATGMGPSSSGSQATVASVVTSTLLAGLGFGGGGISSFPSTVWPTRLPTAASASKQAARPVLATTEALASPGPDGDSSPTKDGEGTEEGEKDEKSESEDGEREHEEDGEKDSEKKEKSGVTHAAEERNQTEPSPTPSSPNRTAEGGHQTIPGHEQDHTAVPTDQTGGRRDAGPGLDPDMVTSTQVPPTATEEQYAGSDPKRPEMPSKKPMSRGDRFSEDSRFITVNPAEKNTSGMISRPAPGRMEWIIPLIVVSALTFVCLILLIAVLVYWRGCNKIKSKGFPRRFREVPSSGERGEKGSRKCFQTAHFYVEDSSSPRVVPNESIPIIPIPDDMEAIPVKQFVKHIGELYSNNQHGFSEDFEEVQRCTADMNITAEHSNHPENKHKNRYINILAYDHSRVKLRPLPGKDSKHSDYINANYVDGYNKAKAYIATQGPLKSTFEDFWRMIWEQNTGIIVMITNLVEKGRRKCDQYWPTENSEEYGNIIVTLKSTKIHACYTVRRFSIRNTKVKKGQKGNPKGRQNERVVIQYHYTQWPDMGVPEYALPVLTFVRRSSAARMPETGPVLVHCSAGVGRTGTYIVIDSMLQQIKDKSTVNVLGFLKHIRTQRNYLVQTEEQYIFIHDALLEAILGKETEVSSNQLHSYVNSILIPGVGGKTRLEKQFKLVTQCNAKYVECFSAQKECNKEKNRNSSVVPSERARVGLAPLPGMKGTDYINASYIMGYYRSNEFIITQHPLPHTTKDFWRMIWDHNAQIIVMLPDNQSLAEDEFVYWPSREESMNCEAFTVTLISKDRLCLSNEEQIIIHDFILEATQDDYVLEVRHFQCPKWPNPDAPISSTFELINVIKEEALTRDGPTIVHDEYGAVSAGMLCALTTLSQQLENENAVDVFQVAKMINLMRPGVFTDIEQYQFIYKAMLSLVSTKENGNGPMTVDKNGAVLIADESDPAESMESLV
Test [4] deals with SKBR3 cells. Description: SKBR3 breast cancer cell growth in Matrigel. Format: cell-based. How it is done:
Approximately 300,000 SKBR3 cells were seeded into 150 μl of growth factor reduced Matrigel (Corning, Corning, N.Y.) in 35 mm dishes. To 3 dishes for each condition, 2 mL of media containing either 10 μl vehicle (DMSO) or compound 11a-1 at the indicated concentration was then added. Every 24 hours, the cells were imaged with a NIKON SMZ1500 stereomicroscoppe. The cross-sectional area of individual colonies from each image were measured using Adobe Photoshop software. After 4 days, the cells were recovered from the Matrigel and lysed in PLC buffer containing protease inhibitor cocktail (Cat. No. P8340; Sigma-Aldrich, St. Louis, Mo.). Lysates were then resolved by SDS-PAGE and relative levels of the indicated proteins were detected by immunoblot analysis.

Test [5] relates to primary low density bone marrow cells bearing KITD814V. Put plainly: Proliferation of primary bone marrow cells bearing KITD814V. The conditions noted are these: 1 μM and 5 μM, compared to II-B08. It is filed as cell-based, C57BL/6 mice. How it is done:
FIG. 8B is a graph depicting WT hematopoietic stem and progenitor cells bearing KITD814V that were starved of serum and growth factors for 6 hours and subjected to proliferation assay in the presence or absence of indicated concentration of II-B08 or 11a-1 as analyzed in Example 6. Bars denote the mean thymidine incorporation (CPM±SD) performed in triplicate from one experiment. *p<0.05.
To further determine the effect of II-B08 and compound 11a-1 on primary bone marrow cells bearing oncogenic KITD814V, primary low density bone marrow cells from C57BL/6 mice were transduced with KITD814V and sorted cells were subjected to a proliferation assay in the presence or absence of the SHP2 inhibitors, II-B08 and compound 11a-1. To express WT KIT and KITD814V receptors in bone marrow cells, low density bone marrow cells were collected from WT mice, and pre-stimulated in IMDM supplemented with 20% FBS, 2% penicillin/streptomycin, and cytokines (100 ng/mL SCF, 100 ng/mL TPO, 50 ng/mL FLT3-L and 4 ng/mL IL-6) for 48 hours prior to retroviral infection on fibronectin fragments (Retronectin) in non-tissues culture plates. On the third day, cells were infected with 2 mL of high-titer retroviral supernatants for WT KIT or KITD814V prepared as described above. A second shot of viral infection was given 24 hours later. […]

In test [6] the target is PTPσ (Homo sapiens (Human), UniProt Q13332). Put plainly: PTP selectivity panel, pNPP. Format: biochemical, mammalian. The following applies: pNPP at Km.
Chain of PTPσ (Q13332 30-1948): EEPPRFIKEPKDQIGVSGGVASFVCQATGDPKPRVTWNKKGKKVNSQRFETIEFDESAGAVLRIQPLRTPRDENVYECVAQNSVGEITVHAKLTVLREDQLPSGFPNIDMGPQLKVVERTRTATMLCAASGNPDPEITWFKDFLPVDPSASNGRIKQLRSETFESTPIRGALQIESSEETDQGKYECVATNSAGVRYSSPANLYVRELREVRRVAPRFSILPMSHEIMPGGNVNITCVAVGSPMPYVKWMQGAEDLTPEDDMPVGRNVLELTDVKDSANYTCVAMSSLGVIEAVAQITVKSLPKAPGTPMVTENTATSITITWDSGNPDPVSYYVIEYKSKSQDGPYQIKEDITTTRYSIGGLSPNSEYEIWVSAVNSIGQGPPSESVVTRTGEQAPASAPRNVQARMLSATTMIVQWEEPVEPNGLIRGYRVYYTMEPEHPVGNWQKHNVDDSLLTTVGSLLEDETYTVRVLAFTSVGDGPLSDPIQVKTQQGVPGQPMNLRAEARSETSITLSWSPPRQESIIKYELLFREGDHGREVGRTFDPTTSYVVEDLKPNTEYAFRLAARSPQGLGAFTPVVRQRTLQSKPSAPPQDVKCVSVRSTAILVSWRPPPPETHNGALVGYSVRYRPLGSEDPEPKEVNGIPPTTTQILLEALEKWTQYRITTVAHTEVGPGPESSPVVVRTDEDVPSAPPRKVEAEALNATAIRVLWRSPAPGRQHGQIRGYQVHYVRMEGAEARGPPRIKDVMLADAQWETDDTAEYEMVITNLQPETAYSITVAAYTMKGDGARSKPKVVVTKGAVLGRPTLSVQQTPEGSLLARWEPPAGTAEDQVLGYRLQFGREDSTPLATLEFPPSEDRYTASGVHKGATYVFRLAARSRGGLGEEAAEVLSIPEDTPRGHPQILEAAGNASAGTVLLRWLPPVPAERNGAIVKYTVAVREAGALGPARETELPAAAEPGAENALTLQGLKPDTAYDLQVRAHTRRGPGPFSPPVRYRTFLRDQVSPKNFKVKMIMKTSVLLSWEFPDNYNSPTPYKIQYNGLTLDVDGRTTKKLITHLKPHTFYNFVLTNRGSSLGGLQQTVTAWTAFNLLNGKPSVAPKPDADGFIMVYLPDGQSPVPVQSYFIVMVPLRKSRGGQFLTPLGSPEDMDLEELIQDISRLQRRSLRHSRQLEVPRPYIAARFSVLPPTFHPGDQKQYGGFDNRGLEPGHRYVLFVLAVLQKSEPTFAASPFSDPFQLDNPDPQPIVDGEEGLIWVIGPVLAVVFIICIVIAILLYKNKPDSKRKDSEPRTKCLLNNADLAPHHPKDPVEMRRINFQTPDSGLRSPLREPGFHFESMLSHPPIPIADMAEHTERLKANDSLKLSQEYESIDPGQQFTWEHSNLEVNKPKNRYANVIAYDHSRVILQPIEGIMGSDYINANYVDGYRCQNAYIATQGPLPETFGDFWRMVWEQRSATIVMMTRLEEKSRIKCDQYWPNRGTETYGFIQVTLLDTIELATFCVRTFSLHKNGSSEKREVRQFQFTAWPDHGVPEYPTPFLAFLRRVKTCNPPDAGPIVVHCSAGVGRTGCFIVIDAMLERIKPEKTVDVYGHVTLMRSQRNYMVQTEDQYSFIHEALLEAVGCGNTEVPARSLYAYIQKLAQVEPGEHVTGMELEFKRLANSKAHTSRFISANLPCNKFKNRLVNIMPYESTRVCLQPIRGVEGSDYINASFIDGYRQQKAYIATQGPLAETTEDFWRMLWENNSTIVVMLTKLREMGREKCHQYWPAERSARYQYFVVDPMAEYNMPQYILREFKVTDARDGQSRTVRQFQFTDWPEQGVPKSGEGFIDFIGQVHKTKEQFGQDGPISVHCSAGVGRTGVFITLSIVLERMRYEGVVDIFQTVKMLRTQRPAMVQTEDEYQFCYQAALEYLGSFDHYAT
The subject of test [7] is 32D myeloid cells bearing KITD814V. Put plainly: Proliferation (thymidine incorporation) of 32D myeloid cells bearing KITD814V. It is filed as cell-based. On the procedure:
as §1
To further determine the efficacy of compound 11a-1, the growth of oncogenic KITD814V bearing 32D myeloid cells in the presence of II-B08 and 11a-1 were compared. Specifically, the wild-type (WT) KIT and KITD814V were inserted into the bicistronic retroviral vector, MIEG3, upstream of the internal ribosome entry site (IRES) and the enhanced green fluorescent protein (EGFP) gene as previously described in Mali et al., 2012. Retroviral supernatants for transduction of 32D myeloid cells and primary hematopoietic stem and progenitor cells were generated using Phoenix ecotropic packaging cell line transfected with retroviral vector plasmids using a calcium phosphate transfection kit (Invitrogen, Carlsbad, Calif.). Supernatants were collected 48 hours after transfection and filtered through 0.45 μm membranes. 32D myeloid cells were infected twice at 24-hour intervals with 2 mL high/titer virus supernatant in the presence of 10 ng/mL IL-3 and 8 μg/mL polybrene. Forty-eight hours after infection, 32D cells expressing WT KIT or KITD814V receptors were sorted to homogeneity based on EGFP expression and utilized to perform all of the experiments.
On the technique in general: Dividing cells build labelled thymidine or BrdU into new DNA.

Test [8] has as its system phosphorylation of SHP2, Akt and Erk1/2. Description: Phosphorylation of SHP2, Akt and Erk1/2 in 32D cells bearing KITD814V (western blot). It is filed as cell-based. The following applies: incubated 2 hours. How it is done: FIG. 8C depicts 32D myeloid cells bearing KITD814V that were starved of serum and growth factors for 6 hours and incubated with the indicated concentration of 11a-1 for 2 hours as analyzed in Example 6. After treatment, cells were lysed and equal amount of protein lysates were subjected to western blot analysis using indicated antibodies.
Background: In western blotting, separated proteins are transferred to a membrane and probed.

The subject of test [9] is PMA-induced Erk1/2 phosphorylation. Description: PMA-induced Erk1/2 phosphorylation. Format: cell-based. On the procedure:
To provide further evidence that the observed cellular effect of compound 11a-1 is SHP2 dependent, the effect of compound 11a-1 on PMA (phorbol 12-myristate 13-acetate)-induced Erk1/2 activation, which is SHP2 independent and instead depends on the activation of protein kinase C and Raf in a Ras-independent manner, was evaluated. Thus, SHP2 inhibitors would not be expected to affect PMA-induced Erk1/2 phosphorylation. Indeed, compound 11a-1 had no effect on PMA-induced Erk1/2 phosphorylation (FIG. 6D).

Test [10] has as its target Laforin (Homo sapiens (Human), UniProt O95278). Description: PTP selectivity panel, pNPP. It is filed as biochemical, mammalian. The conditions noted are these: pNPP at Km.
Test [11] concerns the target UBLCP1 (Homo sapiens (Human), UniProt Q8WVY7). Description: PTP selectivity panel, pNPP. It is filed as biochemical, mammalian. The conditions noted are these: pNPP at Km.

Chain of VHZ (Q9BVJ7 whole entry, species assumed): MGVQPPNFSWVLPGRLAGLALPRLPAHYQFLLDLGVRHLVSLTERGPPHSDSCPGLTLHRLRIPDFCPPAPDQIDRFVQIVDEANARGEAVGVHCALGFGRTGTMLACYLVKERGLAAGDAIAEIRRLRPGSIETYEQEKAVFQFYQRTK
Chain of Laforin (O95278 whole entry, species assumed): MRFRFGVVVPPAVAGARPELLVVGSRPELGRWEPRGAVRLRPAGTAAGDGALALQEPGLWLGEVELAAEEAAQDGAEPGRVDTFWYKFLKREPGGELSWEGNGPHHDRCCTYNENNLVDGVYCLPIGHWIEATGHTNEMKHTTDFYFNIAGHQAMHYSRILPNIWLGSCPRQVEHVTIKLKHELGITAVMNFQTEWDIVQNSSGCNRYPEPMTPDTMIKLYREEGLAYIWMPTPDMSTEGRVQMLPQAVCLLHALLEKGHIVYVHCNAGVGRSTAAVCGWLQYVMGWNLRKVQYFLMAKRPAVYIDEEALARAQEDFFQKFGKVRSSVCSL
Chain of UBLCP1 (Q8WVY7 whole entry, species assumed): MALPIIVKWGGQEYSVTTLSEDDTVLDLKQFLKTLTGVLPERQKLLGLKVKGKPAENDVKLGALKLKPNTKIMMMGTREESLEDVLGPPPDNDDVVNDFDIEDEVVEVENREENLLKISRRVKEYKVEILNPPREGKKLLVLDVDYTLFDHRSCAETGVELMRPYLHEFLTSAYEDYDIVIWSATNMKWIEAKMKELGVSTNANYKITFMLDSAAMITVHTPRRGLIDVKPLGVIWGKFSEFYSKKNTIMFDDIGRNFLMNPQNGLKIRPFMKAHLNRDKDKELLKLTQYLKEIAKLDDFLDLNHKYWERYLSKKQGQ

In the case of `Cn1c(-c2cccc(NC(=O)C(=O)Nc3ccc(-c4ccsc4)cc3)c2)c(I)c2cc(C(=O)O)c(O)cc21` [11a-1, 6-hydroxy-3-iodo-1-methyl-2-(3-(2-oxo-2-((4-(thiophen-3-yl)phenyl)amino)acetamido)phenyl)-1H-indole-5-carboxylic acid], the IC50 (in general, the concentration that gives 50% inhibition) in test [1] was determined as 2.3 ± 0.2 µM; in test [3], 2.4 ± 0.4 µM; in test [6], 8.6 ± 0.4 µM; in test [10], 12.2 ± 2 µM; in test [11], 9.7 ± 0.5 µM. The “growth of WT KIT bearing 32D cells” value in [2] is “no significant suppression”. Besides, the “growth of SKBR3 cells in Matrigel” value in test [4] (3 μM, within 24 hours) was “potently inhibited”. Also, the “ErbB2+ breast cancer cell growth in a 3D Matrigel environment” value in [4] (SKBR3, over 4 days, indicated concentrations) is recorded as “inhibited”. For the same compound, the “growth of primary bone marrow cells bearing KITD814V” value in test [5] was “significant reduced growth”. Also, the “ligand independent growth of KITD814V bearing 32D cells” value in test [7] (1 μM) and in [7] (5 μM) was “significant inhibition” throughout. The “phosphorylation of SHP2, Akt and Erk1/2 in KITD814V bearing 32D cells” value in [8] is reported as “dose dependent inhibition”. For the same compound, the “effect on PMA-induced Erk1/2 phosphorylation” value in test [9] is on record as “no effect”.
